According to publication PMC8149661, “Small-molecule inhibition of Lats kinases may promote Yap-dependent proliferation in postmitotic mammalian tissues” (Nature Communications, 2021):

What was measured:
Assay in all cases: biochemical
[1] = target: T1, NDR1 (Homo sapiens, UniProt Q15208); design: functional kinase inhibition IC50 (Reaction Biology)
T1 construct: gene STK38

[2] = target: T2, PKA (Homo sapiens, UniProt P17612); design: functional kinase inhibition IC50 (Reaction Biology)
T2 construct: gene PRKACA

[3] = target: T3, ROCK1 (Homo sapiens, UniProt Q13464); design: functional kinase inhibition IC50 (Reaction Biology)
[4] = target: T4, PKCepsilon (Homo sapiens, UniProt Q02156); design: functional kinase inhibition IC50 (Reaction Biology)
T4 construct: gene PRKCE

[5] = target: CDK19 (Homo sapiens, UniProt Q9BWU1); conditions: read-out: % inhibition
[6] = target: PRKCH (Homo sapiens, UniProt P24723); conditions: read-out: % inhibition
[7] = target: CDC42BPA (Homo sapiens, UniProt Q5VT25); conditions: read-out: % inhibition
[8] = target: CDK8 (Homo sapiens, UniProt P49336); conditions: read-out: % inhibition
[9] = target: PRKG2 (Homo sapiens, UniProt Q13237); conditions: read-out: % inhibition
[10] = target: PKN2 (Homo sapiens, UniProt Q16513); conditions: read-out: % inhibition
[11] = target: DMPK (Homo sapiens, UniProt Q09013); conditions: read-out: % inhibition
[12] = target: PRKACB (Homo sapiens, UniProt P22694); conditions: read-out: % inhibition
[13] = target: CDC7 (Homo sapiens, UniProt O00311); conditions: read-out: % inhibition
[14] = target: HIPK1 (Homo sapiens, UniProt Q86Z02); conditions: read-out: % inhibition
[15] = target: CLK2 (Homo sapiens, UniProt P49760); conditions: read-out: % inhibition
[16] = target: BMP2K (Homo sapiens, UniProt Q9NSY1); conditions: read-out: % inhibition
[17] = target: GSK3B (Homo sapiens, UniProt P49841); conditions: read-out: % inhibition
[18] = target: CLK1 (Homo sapiens, UniProt P49759); conditions: read-out: % inhibition
[19] = target: ROCK2 (Homo sapiens, UniProt O75116); conditions: read-out: % inhibition
[20] = target: TGFBR2 (Homo sapiens, UniProt P37173); conditions: read-out: % inhibition
[21] = target: LRRK2 (Homo sapiens, UniProt Q5S007); conditions: read-out: % inhibition
[22] = target: CLK4 (Homo sapiens, UniProt Q9HAZ1); conditions: read-out: % inhibition
[23] = target: MAP3K7 (Homo sapiens, UniProt O43318); conditions: read-out: % inhibition
[24] = target: MAP4K4 (Homo sapiens, UniProt O95819); conditions: read-out: % inhibition
[25] = target: PKN1 (Homo sapiens, UniProt Q16512); conditions: read-out: % inhibition
[26] = target: T3, ROCK1; conditions: read-out: % inhibition
[27] = target: PRKCQ (Homo sapiens, UniProt Q04759); conditions: read-out: % inhibition
[28] = target: HIPK3 (Homo sapiens, UniProt Q9H422); conditions: read-out: % inhibition
[29] = target: CDC42BPG (Homo sapiens, UniProt Q6DT37); conditions: read-out: % inhibition
[30] = target: PRKCD (Homo sapiens, UniProt Q05655); conditions: read-out: % inhibition
[31] = target: PASK (Homo sapiens, UniProt Q96RG2); conditions: read-out: % inhibition
[32] = target: DAPK3 (Homo sapiens, UniProt O43293); conditions: read-out: % inhibition
[33] = target: PAK4 (Homo sapiens, UniProt O96013); conditions: read-out: % inhibition
[34] = target: TAOK1 (Homo sapiens, UniProt Q7L7X3); conditions: read-out: % inhibition
[35] = target: HIPK2 (Homo sapiens, UniProt Q9H2X6); conditions: read-out: % inhibition
[36] = target: DYRK1A (Homo sapiens, UniProt Q13627); conditions: read-out: % inhibition
[37] = target: PRKX (Homo sapiens, UniProt P51817); conditions: read-out: % inhibition
[38] = target: DYRK1B (Homo sapiens, UniProt Q9Y463); conditions: read-out: % inhibition

T3 sequence (Q13464 whole entry): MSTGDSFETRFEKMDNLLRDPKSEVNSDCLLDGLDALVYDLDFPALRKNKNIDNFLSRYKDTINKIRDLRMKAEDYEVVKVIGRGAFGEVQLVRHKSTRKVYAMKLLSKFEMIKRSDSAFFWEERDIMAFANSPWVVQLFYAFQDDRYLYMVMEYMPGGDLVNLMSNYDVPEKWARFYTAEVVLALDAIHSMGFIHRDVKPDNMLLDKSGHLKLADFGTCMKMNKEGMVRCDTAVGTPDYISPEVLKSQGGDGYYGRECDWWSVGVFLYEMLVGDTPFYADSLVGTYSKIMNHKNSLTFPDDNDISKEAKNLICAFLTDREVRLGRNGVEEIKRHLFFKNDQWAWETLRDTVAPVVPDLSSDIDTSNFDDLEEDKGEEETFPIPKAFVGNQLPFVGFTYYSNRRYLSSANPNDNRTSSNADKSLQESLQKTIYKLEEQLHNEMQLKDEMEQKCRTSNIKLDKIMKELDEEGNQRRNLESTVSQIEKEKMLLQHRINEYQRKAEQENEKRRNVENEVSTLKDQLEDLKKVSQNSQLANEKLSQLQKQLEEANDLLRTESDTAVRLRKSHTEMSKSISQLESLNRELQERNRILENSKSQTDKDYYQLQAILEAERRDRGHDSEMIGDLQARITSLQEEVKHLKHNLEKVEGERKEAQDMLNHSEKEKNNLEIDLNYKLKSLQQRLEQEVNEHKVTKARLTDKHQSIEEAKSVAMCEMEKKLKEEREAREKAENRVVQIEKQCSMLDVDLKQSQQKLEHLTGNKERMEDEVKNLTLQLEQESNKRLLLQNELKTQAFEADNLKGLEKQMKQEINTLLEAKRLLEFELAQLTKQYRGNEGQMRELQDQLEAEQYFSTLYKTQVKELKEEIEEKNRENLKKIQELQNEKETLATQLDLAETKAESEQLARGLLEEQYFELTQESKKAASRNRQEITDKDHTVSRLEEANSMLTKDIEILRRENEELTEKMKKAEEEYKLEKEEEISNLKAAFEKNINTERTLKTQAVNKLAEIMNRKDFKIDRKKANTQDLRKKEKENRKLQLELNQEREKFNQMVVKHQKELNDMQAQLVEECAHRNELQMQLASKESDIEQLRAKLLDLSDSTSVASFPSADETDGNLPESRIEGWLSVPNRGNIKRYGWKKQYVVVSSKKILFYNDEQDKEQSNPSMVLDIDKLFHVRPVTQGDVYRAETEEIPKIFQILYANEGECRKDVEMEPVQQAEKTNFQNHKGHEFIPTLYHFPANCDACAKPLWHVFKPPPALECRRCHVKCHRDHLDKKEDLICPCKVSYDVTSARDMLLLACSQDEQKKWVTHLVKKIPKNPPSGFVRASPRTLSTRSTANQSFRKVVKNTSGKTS
Sequence of CDC7 (O00311 whole entry): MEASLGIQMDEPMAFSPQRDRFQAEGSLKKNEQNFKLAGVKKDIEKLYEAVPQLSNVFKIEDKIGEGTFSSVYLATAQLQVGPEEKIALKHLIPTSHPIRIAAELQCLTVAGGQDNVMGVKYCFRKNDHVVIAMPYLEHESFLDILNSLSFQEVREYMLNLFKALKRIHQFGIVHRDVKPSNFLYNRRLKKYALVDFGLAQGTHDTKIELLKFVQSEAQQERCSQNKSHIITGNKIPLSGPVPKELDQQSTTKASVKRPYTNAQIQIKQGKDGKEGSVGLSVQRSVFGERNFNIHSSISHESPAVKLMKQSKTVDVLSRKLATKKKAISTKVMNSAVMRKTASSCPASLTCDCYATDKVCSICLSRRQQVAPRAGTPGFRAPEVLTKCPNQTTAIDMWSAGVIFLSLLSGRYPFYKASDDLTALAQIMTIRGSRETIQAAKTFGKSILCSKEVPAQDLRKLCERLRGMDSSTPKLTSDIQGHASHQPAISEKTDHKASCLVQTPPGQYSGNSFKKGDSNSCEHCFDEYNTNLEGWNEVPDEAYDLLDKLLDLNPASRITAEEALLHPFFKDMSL
Sequence of CLK2 (P49760 whole entry): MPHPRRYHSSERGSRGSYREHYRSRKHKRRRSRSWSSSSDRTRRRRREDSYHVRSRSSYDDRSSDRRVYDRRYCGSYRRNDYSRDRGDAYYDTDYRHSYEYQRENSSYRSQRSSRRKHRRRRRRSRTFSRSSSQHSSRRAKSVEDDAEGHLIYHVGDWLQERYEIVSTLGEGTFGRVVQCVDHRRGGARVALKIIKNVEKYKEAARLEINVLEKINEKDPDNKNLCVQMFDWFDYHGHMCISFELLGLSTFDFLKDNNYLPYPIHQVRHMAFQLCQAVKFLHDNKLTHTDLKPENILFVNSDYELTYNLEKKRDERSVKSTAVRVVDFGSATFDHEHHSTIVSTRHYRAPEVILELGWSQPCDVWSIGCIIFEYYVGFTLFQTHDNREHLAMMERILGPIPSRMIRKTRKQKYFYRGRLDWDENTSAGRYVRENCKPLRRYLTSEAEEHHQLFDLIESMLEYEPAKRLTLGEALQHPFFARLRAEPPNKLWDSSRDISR
Sequence of BMP2K (Q9NSY1 whole entry): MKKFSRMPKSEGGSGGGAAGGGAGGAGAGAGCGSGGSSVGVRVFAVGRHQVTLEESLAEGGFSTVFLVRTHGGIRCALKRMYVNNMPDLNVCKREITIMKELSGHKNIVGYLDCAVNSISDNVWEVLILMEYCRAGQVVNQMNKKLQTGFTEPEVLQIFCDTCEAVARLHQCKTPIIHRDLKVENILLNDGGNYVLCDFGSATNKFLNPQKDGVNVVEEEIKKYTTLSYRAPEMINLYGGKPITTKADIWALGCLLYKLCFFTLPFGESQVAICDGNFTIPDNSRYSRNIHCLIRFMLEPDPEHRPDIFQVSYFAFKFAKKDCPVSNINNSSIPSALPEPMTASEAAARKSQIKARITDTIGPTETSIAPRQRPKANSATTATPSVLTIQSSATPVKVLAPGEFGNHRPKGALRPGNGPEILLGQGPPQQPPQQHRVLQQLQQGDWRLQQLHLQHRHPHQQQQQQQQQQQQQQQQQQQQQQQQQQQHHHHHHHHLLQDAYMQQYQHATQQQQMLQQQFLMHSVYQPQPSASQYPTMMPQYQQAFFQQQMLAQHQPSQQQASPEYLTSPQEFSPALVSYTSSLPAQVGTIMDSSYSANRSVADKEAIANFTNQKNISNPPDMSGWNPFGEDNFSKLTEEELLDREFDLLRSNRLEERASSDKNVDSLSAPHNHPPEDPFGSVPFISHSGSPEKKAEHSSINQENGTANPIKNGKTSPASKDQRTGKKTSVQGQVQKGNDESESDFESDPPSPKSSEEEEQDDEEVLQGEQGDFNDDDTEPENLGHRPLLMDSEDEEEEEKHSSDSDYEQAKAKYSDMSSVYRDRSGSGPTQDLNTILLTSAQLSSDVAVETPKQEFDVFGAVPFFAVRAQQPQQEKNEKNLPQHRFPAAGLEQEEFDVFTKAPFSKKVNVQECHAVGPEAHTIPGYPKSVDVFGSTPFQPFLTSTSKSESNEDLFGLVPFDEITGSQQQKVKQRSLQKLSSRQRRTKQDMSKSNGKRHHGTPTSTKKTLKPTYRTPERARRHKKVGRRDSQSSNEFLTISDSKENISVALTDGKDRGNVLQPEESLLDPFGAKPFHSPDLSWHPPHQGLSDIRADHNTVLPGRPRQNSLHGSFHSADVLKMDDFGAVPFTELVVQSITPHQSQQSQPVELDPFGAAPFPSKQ
Sequence of PKN2 (Q16513 whole entry): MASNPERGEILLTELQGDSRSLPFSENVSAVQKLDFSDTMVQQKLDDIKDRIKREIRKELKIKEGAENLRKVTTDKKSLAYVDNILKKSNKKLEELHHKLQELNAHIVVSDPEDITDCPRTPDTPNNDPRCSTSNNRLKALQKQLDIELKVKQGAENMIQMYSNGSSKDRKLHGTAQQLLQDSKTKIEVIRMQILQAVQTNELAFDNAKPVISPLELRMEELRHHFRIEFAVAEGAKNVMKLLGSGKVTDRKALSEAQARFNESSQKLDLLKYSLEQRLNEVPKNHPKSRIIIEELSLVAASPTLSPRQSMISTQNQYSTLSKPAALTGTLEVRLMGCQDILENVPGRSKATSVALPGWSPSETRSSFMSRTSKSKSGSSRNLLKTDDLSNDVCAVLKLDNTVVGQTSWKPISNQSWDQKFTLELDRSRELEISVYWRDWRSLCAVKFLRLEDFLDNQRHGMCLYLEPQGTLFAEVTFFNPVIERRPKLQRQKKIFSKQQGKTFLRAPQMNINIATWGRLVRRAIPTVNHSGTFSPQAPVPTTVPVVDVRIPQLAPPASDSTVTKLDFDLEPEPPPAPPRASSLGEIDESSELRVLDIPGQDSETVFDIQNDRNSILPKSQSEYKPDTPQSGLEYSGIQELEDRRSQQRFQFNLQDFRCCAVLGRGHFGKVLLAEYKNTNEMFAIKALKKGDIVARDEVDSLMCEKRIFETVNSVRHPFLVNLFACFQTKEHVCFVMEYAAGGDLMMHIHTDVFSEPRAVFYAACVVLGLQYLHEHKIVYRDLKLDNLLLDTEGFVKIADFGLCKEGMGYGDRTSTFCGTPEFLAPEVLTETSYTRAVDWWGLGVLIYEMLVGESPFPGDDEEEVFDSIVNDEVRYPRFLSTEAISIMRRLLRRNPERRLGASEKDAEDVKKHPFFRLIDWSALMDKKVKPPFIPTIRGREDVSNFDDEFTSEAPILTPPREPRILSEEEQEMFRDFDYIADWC
T1 sequence (Q15208 whole entry): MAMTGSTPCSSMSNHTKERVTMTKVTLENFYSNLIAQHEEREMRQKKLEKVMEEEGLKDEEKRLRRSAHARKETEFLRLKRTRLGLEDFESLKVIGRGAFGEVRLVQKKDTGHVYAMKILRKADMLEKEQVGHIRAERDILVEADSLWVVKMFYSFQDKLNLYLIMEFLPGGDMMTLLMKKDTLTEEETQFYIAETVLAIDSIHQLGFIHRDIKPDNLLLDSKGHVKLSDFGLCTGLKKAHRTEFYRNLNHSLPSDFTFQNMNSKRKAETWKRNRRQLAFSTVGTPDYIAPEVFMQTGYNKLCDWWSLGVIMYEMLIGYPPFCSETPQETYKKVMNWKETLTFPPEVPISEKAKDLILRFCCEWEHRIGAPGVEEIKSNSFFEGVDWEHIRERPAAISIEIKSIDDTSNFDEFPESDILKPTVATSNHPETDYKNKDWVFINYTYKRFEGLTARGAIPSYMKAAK

IC50 [1]: 1000 nM
IC50 [2]: 60 nM
IC50 [3]: 88 nM
IC50 [4]: 14 nM
inhibition at 1 µM [5]: 90.2%
inhibition at 1 µM [6]: 90.4%
inhibition at 1 µM [7]: 97.2%
inhibition at 1 µM [8]: 88.8%
inhibition at 1 µM [9]: 79.1%
inhibition at 1 µM [10]: 89.7%
inhibition at 1 µM [11]: 97.9%
inhibition at 1 µM [12]: 92.9%
inhibition at 1 µM [13]: 99.1%
inhibition at 1 µM [14]: 86.1%
inhibition at 1 µM [15]: 92.8%
inhibition at 1 µM [16]: 86.3%
inhibition at 1 µM [17]: 92.7%
inhibition at 1 µM [18]: 78.1%
inhibition at 1 µM [19]: 84.1%
inhibition at 1 µM [20]: 81.3%
inhibition at 1 µM [21]: 81.3%
inhibition at 1 µM [22]: 102%
inhibition at 1 µM [23]: 74%
inhibition at 1 µM [24]: 77.5%
inhibition at 1 µM [25]: 77.7%
inhibition at 1 µM [26]: 79.2%
inhibition at 1 µM [27]: 99.2%
inhibition at 1 µM [28]: 95.8%
inhibition at 1 µM [29]: 83.7%
inhibition at 1 µM [30]: 78%
inhibition at 1 µM [31]: 85.8%
inhibition at 1 µM [32]: 77.1%
inhibition at 1 µM [33]: 83.4%
inhibition at 1 µM [34]: 76.4%
inhibition at 1 µM [35]: 94.2%
inhibition at 1 µM [36]: 85.8%
inhibition at 1 µM [37]: 88.1%
inhibition at 1 µM [38]: 81.5%
SMILES: O=C(N=c1sccn1Cc1ccccc1)c1c[nH]c2ncccc12 [TRULI, N-(3-benzylthiazol-2(3H)-ylidene)-1H-pyrrolo[2,3-b]pyridine-3-carboxamide]
